# Assays:
# [1] = fraction of the toxicity of common table salt; general statement, no test described; cited from earlier work
# alcohol induced hangover = test: focus group: treating an alcohol induced hangover; type: in vivo, human; details: eight subjects (four male, four female); approximately 0.06 ounces powder in approximately 8 ounces of water or juice, oral, morning after an average of 9.5 alcoholic drinks; self-reported by each subject
# Description: Each subject consumed an average of 9.5 alcoholic drinks in an average time period of 4.1 hours over the course of one evening. Each subject reported that they experienced the effects of an alcohol induced hangover the following morning. Upon rising, the subjects each ingested approximately 0.06 ounces of methylsulfonylmethane powder which had been mixed with approximately 8 ounces of water or juice. Each subject attested to the fact the effects of their alcohol induced hangover were relieved within less than one hour after ingesting the methylsulfonylmethane compound.
structure (smiles),measurement,setting,value
CS(C)(=O)=O [methylsulfonylmethane],toxicity level relative to common table salt,[1],1/7
same,time until effects of alcohol induced hangover were relieved after ingesting,alcohol induced hangover,less than one

# Source: patent US20040082667A1, “Hangover treatment” (priority 2002, published 2004)
